Here are results for three substances from paper PMC7567880 (Scientific Reports, 2020).

Series [1] relates to P. viticola cellulose synthase 2 (PvCesA2), cytoplasmic portion aa 331 to 790. Type of series: binding, Plasmopara viticola. The note with it: growth on selective media lacking adenine or histidine, 10 mM 3-AT; sequence found at least three times among 30 colonies.
In series [2] the test system is Plasmopara viticola. Format: cell-based. The following applies: 5 and 7 dpi; for effect on P. viticola disease severity on leaf disks: 200 μM peptide co-inoculated with sporangia, Pinot noir leaf disks, ten replicates from two experiments.
The subject of series [3] is Plasmopara viticola. Type of series: cell-based.
The test system of series [4] is Plasmopara viticola. Type of series: in vivo. The note with it: for disease severity of plants: average ± standard error.
The test system of series [5] is Escherichia coli. Type of series: cell-based. The note with it: 100 μM and 200 μM in LB medium, 37 °C, OD600 every hour for 5 h, three biological replicates.
In series [6] the test system is Agrobacterium tumefaciens. Format: cell-based. The following applies: 100 μM and 200 μM in LB medium, 28 °C, OD600 every hour for 5 h, three biological replicates.
For series [7], the system named is Bacillus amyloliquefaciens (subsp. plantarum) strain D 747. Format: cell-based. The following applies: 100 μM and 200 μM in LB medium, 37 °C, OD600 every hour for 5 h, three biological replicates.
In series [8] the test system is Erysiphe necator. Format: cell-based. The following applies: 200 μM and 400 μM, young grapevine leaves, 14 dpi.
Series [9] concerns Phytophthora infestans. Type of series: cell-based. The note with it: 100 μM and 200 μM in pea agar medium, 20 °C, radial growth at 4, 5 and 7 dpi.
Series [10] concerns Plasmopara viticola zoospores. Type of series: cell-based. The note with it: 200 μM, leaf disks, 6 h in the dark at 22 °C, SEM.
Series [11] concerns HKC8 cells. The note with it: 400 μM, HKC8 at 1 K, 3 K and 6 K cells/100 μl, four biological replicates.
The subject of series [12] is Pinot noir leaves, photosystem II. The note with it: grapevine leaves, 7 days after treatment, average ± SD of 3 measurements.

Read-outs that look alike come from different tables or passages of the source.

As to “H-RLTAQCRL-OH [NoPv1, peptide aptamer of 8 L-amino acid residues, RLTAQCRL, isolated with PvCesA2 as bait]”, the “peptide aptamers interacting with PvCesA2 (yeast two-hybrid library screening)” value (“peptide aptamers interacting” for short) in [1] is reported as “interacting with PvCesA2”. Further, the “effect on P. viticola disease severity on leaf disks” value in series [2] is on record as “completely inhibit”. In addition, in [2] (co-inoculation, 20 μM), the “anti-oomycete activity on leaf disks” value is given as “no anti-oomycete activity”. The “P. viticola disease severity on leaf disks” value in series [2] (co-inoculation, 50 μM) is recorded as “almost half of the control sample”. Also, the “percentage of leaf disk area covered by P. viticola sporulation” value in series [2] (co-inoculation, concentrations equal or higher than 100 μM) was “below 10%”. Also, the “treatment efficacy, preventive application” value in series [3] (400 μM applied 7 days before inoculation (-7 d), leaf disks) was “effective in suppressing P. viticola infection”. The “treatment efficacy, post-inoculation (curative) application” value in series [3] (400 μM applied +1 h to +2 d after P. viticola inoculation, leaf disks) is “efficacy decreased very rapidly”. The Disease severity turned out to be 18.00% in series [3] (400 μM sprayed +1 h after inoculation, leaf disks, 7 dpi, mean of ten replicates); 23.76% in [3] (400 μM sprayed +1 d after inoculation, leaf disks, 7 dpi, mean of ten replicates); 36.00% in series [3] (400 μM sprayed +2 d after inoculation, leaf disks, 7 dpi, mean of ten replicates); 1.58% in series [3] (400 μM sprayed -2 h before inoculation, leaf disks, 7 dpi, mean of ten replicates); 5.62% in series [3] (400 μM sprayed -6 h before inoculation, leaf disks, 7 dpi, mean of ten replicates); 6.17% in [3] (400 μM sprayed -1 d before inoculation, leaf disks, 7 dpi, mean of ten replicates). The Disease severity in series [3] (400 μM sprayed -2 d before inoculation, leaf disks, 7 dpi, mean of ten replicates) came to 3.96%; in series [3] (400 μM sprayed -5 d before inoculation, leaf disks, 7 dpi, mean of ten replicates), 2.23%; in [3] (400 μM sprayed -7 d before P. viticola inoculation, leaf disks, 7 dpi, mean of ten replicates from two experiments), 9.72%; in series [3] (400 μM, co-inoculation 0 h, leaf disks, 7 dpi, mean of ten replicates), 2.88%; in series [4] (1 mM sprayed -7 d before inoculation, greenhouse plants, 7 dpi, mean of ten replicates from two experiments) it was 15.89%. The “P. viticola severity on leaf disks after nebulization” value in series [3] (400 μM, Potter Precision Spray Tower, 7 dpi) is reported as “reduction of P. viticola severity”. In addition, the “efficacy on leaf disks after nebulization compared with copper fungicide” value in series [3] (800 μM vs Kocide 2000 1.42 g l^-1, Potter Precision Spray Tower) is on record as “as effective as the copper-based fungicide Kocide 2000”. The “lowest concentration that maximises the efficacy against P. viticola” value in [3] (nebulization on leaf disks, Potter Precision Spray Tower) was found to be 400 µM. In addition, the “disease severity of plants” value in [4] (400 μM sprayed immediately before P. viticola inoculation, greenhouse Pinot noir plants) was 27.3 ± 5.2%; in [4] (800 μM sprayed immediately before P. viticola inoculation, greenhouse plants), 26.2 ± 4.2%; in series [4] (1 mM sprayed immediately before P. viticola inoculation, greenhouse plants) it was 20.8 ± 2.4%; in series [4] (2 mM sprayed immediately before P. viticola inoculation, greenhouse plants) it was 21.1 ± 4.2. The “NoPv1 efficacy compared to control plants” value in series [4] (1 mM applied at -7 d, -2 d and 0 h, greenhouse plants, 7 dpi) is listed as “higher than 60%”. Further, in series [4] (greenhouse plants, sprayed immediately before inoculation), the “lowest concentration showing a P. viticola severity comparable to the copper treatment” value came out at 1 mM. The “growth inhibition of E. coli” value in series [5] is on record as “not able to inhibit the growth”. The “growth inhibition of A. tumefaciens” value in series [6] is “not able to inhibit the growth”. Further, the “growth inhibition of B. amyloliquefaciens” value in series [7] was “not able to inhibit the growth”. Besides, the “effect on E. necator disease severity on leaves” value in series [8] is reported as “not able to reduce the disease severity on leaves”. Moreover, in [9], the “inhibition of P. infestans growth in vitro” value is recorded as “able to inhibit P. infestans growth in vitro”. Moreover, in [10] (5 zoospores out of 160), the “zoospores in which a germ tube primordium could be detected” value came to 3.12%. For the same substance, the “P. viticola germ tube formation” value in [10] (n = 160) was “unable to develop any germ tube”. The “cell viability (MTT, absorbance at 570 nm) vs control” value is “No significant differences between control and treated samples” in series [11] (DMEM-F12, 24 h); “cytotoxic effects could only be observed at 1 K cell density” in [11] (DMEM-F12, 48 h). The results for the “FV/FM, maximum quantum yield of photosystem II” value in [12] (400 µM (P1)) and in series [12] (1 mM (P2)) were 0.73 ± 0.01 and 0.74 ± 0.01, respectively. The entries for the “Y(II), effective quantum yield of photosystem II” value in series [12] (400 µM (P1)) and in series [12] (1 mM (P2)) were 0.33 ± 0.02 and 0.33 ± 0.01, respectively.

For “H-MLLHSELC-OH [NoPv3, 8 a.a. peptide aptamer identified by yeast two-hybrid assay using PvCesA2 as bait]”, the “peptide aptamers interacting” value in series [1] is recorded as “interacting with PvCesA2”. Also, the “effect on P. viticola disease severity on leaf disks” value in [2] was “no effect”.

As to “H-LFPFVSSM-OH [NoPv2, 8 a.a. peptide aptamer identified by yeast two-hybrid assay using PvCesA2 as bait]”, the “peptide aptamers interacting” value in [1] is on record as “interacting with PvCesA2”. In addition, the “effect on P. viticola disease severity on leaf disks” value in [2] is given as “intermediate”.
